Data reported in US20040086901A1, “Database for analyzing gene function and method of analyzing gene function by dspa” (priority 2000, published 2004).

What was measured:
Assay type in all cases: cell-based, mouse
[1] = test system: NIH3T3 cells overexpressing HNF4; test: MTT cell viability, HNF4 overexpressing cells vs parental line; settings: HNF4 high-expressing cells / parental cell line, 3 to 4 days
Protocol: (§1) With regard to the function-known genes, the genes shown in the left column of Table 2 were used. With regard to the drugs, those shown in Table 1 were dissolved in DMSO to an extent of 100-fold of the maximum concentration for the search of the drugs and used. With regard to the cells, incubated NIH3T3 or ras-NIH3T3 cells were used.
(§2) Full-length cDNA of each function-known genes was incorporated into an expression vector (pRc-CMV, etc.) and transfected into NIH3T3 cells by a common method. Transformed cells were isolated using the resistance to G-418 as an index and the expression of the transfected gene in each cell was investigated by Western blotting method to select a highly expressing line.
(§3) Cell viabilities were measured according to the following procedures.
(§4) 1) From the 2nd to the 11th rows of a 96-well plate were filled with DMEM (50 μl). The 12th row was filled with 100 μl of DMEM.
(§5) 2) The 1st row was filled with 98 μl of DMEM.
(§6) 3) Drugs (2 μl each) were added into the 1st row.
(§7) 4) Continuous double-dilution was conducted from the 1st to the 9th rows. Fifty μl were taken out from the 9th row and discarded. The plate was preserved in a CO2 incubator.
(§8) 5) Cells (each high-expressing cells and the parental cell line) were detached from the medium using a trypsin solution, suspended in 10% CS-DMEM and transferred to a test tube and cell numbers (cell/ml) were counted.
(§9) 6) The cells were diluted to a concentration of 1×10^5 cells/ml, and 50 μl of the cell suspension were added to the 1st to the 11th rows of the plate followed by gently stirring.
(§10) 7) The plate was transferred to the CO2 incubator and incubated for 3 to 4 days.
(§11) 8) MTT (5 mg/ml in PBS) (10 μl) was added to the 1st to the 12th rows of the plate and incubated in the CO2 incubator at 37° C. for 4 hours.
(§12) 9) A reaction stop solution (0.04N HCl in isopropanol) (150 μl) was added followed by mixing well and being allowed to stand at room temperature for about 2 hours.
(§13) 10) Coloration of formazan which was a metabolite of the MTT dye was measured using a microplate reader. The measurement wavelength was 574 nm and the reference wavelength was 655 nm. The 10th and the 11th rows of the plate were 100% controls and the 12th row was a 0% control.
(§14) As an index for the sensitivity of highly gene-expressing cells and the parental cell line to various drugs, each of the IC40 values thereof was specified and ratios of the IC40 values were calculated. […] After that, logarithmic values of ratios of IC40 values were calculated from each gene.

[2] = test system: NIH3T3 cells overexpressing Regucalcin; test: MTT cell viability, Regucalcin overexpressing cells vs parental line; settings: Regucalcin high-expressing cells / parental cell line, 3 to 4 days
Protocol: as §1, §2, §3, §4, §5, §6, §7, §8, §9, §10, §11, §12, §13
(§15) As an index for the sensitivity of highly gene-expressing cells and the parental cell line to various drugs, each of the IC40 values thereof was specified and ratios of the IC40 values were calculated. FIG. 2 and FIG. 3 are the examples where ratios of IC40 values were calculated from a curve showing the dependency on the concentration of the chemical versus the viability. After that, logarithmic values of ratios of IC40 values were calculated from each gene.

[3] = test system: NIH3T3 cells overexpressing p16/INK4A; test: MTT cell viability, p16/INK4A overexpressing cells vs parental line; settings: p16/INK4A high-expressing cells / parental cell line, 3 to 4 days
Protocol: as §1, §2, §3, §4, §5, §6, §7, §8, §9, §10, §11, §12, §13, §15

[4] = test system: NIH3T3 cells overexpressing CBP8; test: MTT cell viability, CBP8 overexpressing cells vs parental line; settings: CBP8 high-expressing cells / parental cell line, 3 to 4 days
Protocol: as §1, §2, §3, §4, §5, §6, §7, §8, §9, §10, §11, §12, §13, §15

[5] = test system: NIH3T3 cells overexpressing caspase-3; test: MTT cell viability, caspase-3 overexpressing cells vs parental line; settings: caspase-3 high-expressing cells / parental cell line, 3 to 4 days
Protocol: as §1, §2, §3, §4, §5, §6, §7, §8, §9, §10, §11, §12, §13, §14

[6] = test system: NIH3T3 cells overexpressing caspase-2; test: MTT cell viability, caspase-2 overexpressing cells vs parental line; settings: caspase-2 high-expressing cells / parental cell line, 3 to 4 days
Protocol: as §1, §2, §3, §4, §5, §6, §7, §8, §9, §10, §11, §12, §13, §15

[7] = test system: NIH3T3 cells overexpressing Bax; test: MTT cell viability, Bax overexpressing cells vs parental line; settings: 3 to 4 days
Protocol: as §1, §2, §3, §4, §5, §6, §7, §8, §9, §10, §11, §12, §13, §14

[8] = test system: NIH3T3 cells overexpressing N-ras; test: MTT cell viability, N-ras overexpressing cells vs parental line; settings: N-ras high-expressing cells / parental cell line, 3 to 4 days
Protocol: as §1, §2, §3, §4, §5, §6, §7, §8, §9, §10, §11, §12, §13, §15

[9] = test system: NIH3T3 cells overexpressing RhoA; test: MTT cell viability, RhoA overexpressing cells vs parental line; settings: RhoA high-expressing cells / parental cell line, 3 to 4 days
Protocol: as §1, §2, §3, §4, §5, §6, §7, §8, §9, §10, §11, §12, §13, §15

[10] = test system: NIH3T3 cells overexpressing Ki-ras; test: MTT cell viability, Ki-ras overexpressing cells vs parental line; settings: Ki-ras high-expressing cells / parental cell line, 3 to 4 days
Protocol: as §1, §2, §3, §4, §5, §6, §7, §8, §9, §10, §11, §12, §13, §15

[11] = test system: NIH3T3 cells, TPA (PKC downreg); test: MTT cell viability, TPA (PKC downreg) cells vs parental line; settings: 3 to 4 days
Protocol: as §1, §2, §3, §4, §5, §6, §7, §8, §9, §10, §11, §12, §13, §15

[12] = test system: NIH3T3 cells overexpressing calpastatin; test: MTT cell viability, calpastatin overexpressing cells vs parental line; settings: calpastatin high-expressing cells / parental cell line, 3 to 4 days
Protocol: as §1, §2, §3, §4, §5, §6, §7, §8, §9, §10, §11, §12, §13, §15

[13] = test system: NIH3T3 cells overexpressing cystatin E; test: MTT cell viability, cystatin E overexpressing cells vs parental line; settings: cystatin E high-expressing cells / parental cell line, 3 to 4 days
Protocol: as §1, §2, §3, §4, §5, §6, §7, §8, §9, §10, §11, §12, §13, §15

[14] = test system: NIH3T3 cells overexpressing HNF3b; test: MTT cell viability, HNF3b overexpressing cells vs parental line; settings: HNF3b high-expressing cells / parental cell line, 3 to 4 days
Protocol: as §1, §2, §3, §4, §5, §6, §7, §8, §9, §10, §11, §12, §13, §14

[15] = test system: NIH3T3 cells overexpressing caspase-1; test: MTT cell viability, caspase-1 overexpressing cells vs parental line; settings: caspase-1 high-expressing cells / parental cell line, 3 to 4 days
Protocol: as §1, §2, §3, §4, §5, §6, §7, §8, §9, §10, §11, §12, §13, §14

[16] = test system: NIH3T3 cells overexpressing p33/ING1; test: MTT cell viability, p33/ING1 overexpressing cells vs parental line; settings: p33/ING1 high-expressing cells / parental cell line, 3 to 4 days
Protocol: as §1, §2, §3, §4, §5, §6, §7, §8, §9, §10, §11, §12, §13, §15

[17] = test system: NIH3T3 cells overexpressing erbB2; test: MTT cell viability, erbB2 overexpressing cells vs parental line; settings: erbB2 high-expressing cells / parental cell line, 3 to 4 days
Protocol: as §1, §2, §3, §4, §5, §6, §7, §8, §9, §10, §11, §12, §13, §15

[18] = test system: NIH3T3 cells overexpressing STAT1; test: MTT cell viability, STAT1 overexpressing cells vs parental line; settings: STAT1 high-expressing cells / parental cell line, 3 to 4 days
Protocol: as §1, §2, §3, §4, §5, §6, §7, §8, §9, §10, §11, §12, §13, §14

[19] = test system: NIH3T3 cells overexpressing CaMKIIa; test: MTT cell viability, CaMKIIa overexpressing cells vs parental line; settings: CaMKIIa high-expressing cells / parental cell line, 3 to 4 days
Protocol: as §1, §2, §3, §4, §5, §6, §7, §8, §9, §10, §11, §12, §13, §14

[20] = test system: NIH3T3 cells overexpressing cAMP-PK-CS; test: MTT cell viability, cAMP-PK-CS overexpressing cells vs parental line; settings: cAMP-PK-CS high-expressing cells / parental cell line, 3 to 4 days
Protocol: as §1, §2, §3, §4, §5, §6, §7, §8, §9, §10, §11, §12, §13, §14

[21] = Bax (first of two Bax lines) high-expressing cells / parental cell line
[22] = Bax (second of two Bax lines) high-expressing cells / parental cell line

| SMILES | logarithmic value of ratio of IC40 values [1] | logarithmic value of ratio of IC40 values [2] | logarithmic value of ratio of IC40 values [3] | logarithmic value of ratio of IC40 values [4] | logarithmic value of ratio of IC40 values [5] | logarithmic value of ratio of IC40 values [6] | logarithmic value of ratio of IC40 values [7, 21] | logarithmic value of ratio of IC40 values [7, 22] | logarithmic value of ratio of IC40 values [8] | logarithmic value of ratio of IC40 values [9] | logarithmic value of ratio of IC40 values [10] | logarithmic value of ratio of IC40 values [11] | logarithmic value of ratio of IC40 values [12] | logarithmic value of ratio of IC40 values [13] | logarithmic value of ratio of IC40 values [14] | logarithmic value of ratio of IC40 values [15] | logarithmic value of ratio of IC40 values [16] | logarithmic value of ratio of IC40 values [17] | logarithmic value of ratio of IC40 values [18] | logarithmic value of ratio of IC40 values [19] | further results |
| --- | --- | --- | --- | --- | --- | --- | --- | --- | --- | --- | --- | --- | --- | --- | --- | --- | --- | --- | --- | --- | --- |
| C=CC1=C(C)c2cc3[n-]c(cc4nc(cc5[n-]c(cc1n2)c(C)c5CCC(=O)O)C(CCC(=O)O)=C4C)c(C)c3C=C.[Cl-].[Cl-].[Sn+4] [SnPP] | 0.46 | 0.32 | −0.05 | 0.56 | −0.40 | −0.33 | 0.17 | 0.10 | 0.14 | 0.14 | 0.18 | −0.20 | 0.486 | 0.11 | 0.24 | −0.15 | −0.23 | −0.25 | 0.08 | 0.24 | logarithmic value of ratio of IC40 values [20]: 0.02 |
| O=[As]O [NaAsO2, sodium arsenite] | 0.00 | 0.03 | 0.16 | 0.21 | 0.11 | 0.18 | −0.10 | 0.34 | −0.19 | 0.07 | 0.08 | −0.20 | 0 | 0.15 | 0.00 | −0.21 | −0.07 | −0.15 | 0.16 | 0.00 | logarithmic value of ratio of IC40 values [20]: 0.07 |
| O=c1c(-c2ccc(O)cc2)coc2cc(O)cc(O)c12 [Genistein, genistein] | −0.15 | 0.00 | 0.40 | 0.10 | 0.04 | 0.30 | 0.20 | 0.38 | 0.42 | 0.31 | 0.00 | −0.09 | 0.127 | 0.21 | −0.21 | −0.12 | 0.78 | −0.60 | 0.10 | −0.15 | logarithmic value of ratio of IC40 values [20]: 0.00 |
| COc1ccc2c(c1)CC[C@@H]1[C@@H]2CC[C@]2(C)[C@@H](NCCCCCCN3C(=O)C=CC3=O)CC[C@@H]12 [U73122] | 0.00 | −0.66 | 0.28 | 0.18 | 0.53 | −0.02 | 0.00 | 0.00 | −0.54 | 0.12 | −0.60 | −0.12 | −0.313 | −0.07 | −0.31 | 0.53 | 0.28 | −0.96 | 0.18 | −0.05 | logarithmic value of ratio of IC40 values [20]: −0.18 |
